Assay results reported in patent US20260125400A1, “TYK2 DEGRADERS AND USES THEREOF” (Kymera Therapeutics, Inc., priority 2023, published 2026).
Where two headings read alike, the source gives them in different places.

Molecular target: T1, TYK2 (Homo sapiens, UniProt P29597)
T1 construct: Degradation of TYK2 in cells was quantitatively measured using Meso Scale Discovery (MSD) technology; endogenous in cells; host or cells: OCI-LY10
Assay: TYK2 MSD degradation in OCI-LY10 cells
Assay type: cell-based
Details: 4 to 24 hours incubation; for DC50: read-out: TYK2 MSD OCI-LY10 Rel-DC50
Method: Example 7. TYK2 MSD Degradation
Degradation of TYK2 in cells was quantitatively measured using Meso Scale Discovery (MSD) technology. OCI-LY10 cells were seeded in 96-well plates with a density of 0.4 million cells per well in 100 μl fresh media. Compounds were then added to the assay plates with a final top concentration of 1 to 10 μM in a 1:3 dilution series with total of 9 doses. The assay plates were then incubated for 4 to 24 hours at 37° C. under […]. The assay plates were then centrifuged for 5 minutes, and the cell pellets were treated with 100 μl/well RIPA lysis buffer (Boston Bioproducts, BP-115D) with protease and phosphatase inhibitors (Roche, 05892791001 and 04906837001). To prepare MSD assay plates (MSD, L15XA), the plates were coated with the capture antibody (Santa Cruz Biotechnology, SC-5271) in PBS, at 40 μl/well. The plates were then incubated overnight at 4° C., washed 3 times with 150 μl/well TBST buffer (Cell Signaling Technology, 9997S) and blocked with 150 μl/well blocking buffer (MSD, R93BA-4). Cell lysates were then added to MSD assay plates and the plates were incubated at room temperature for 1 hour. The plates were then washed 3 times with 150 μl/well TBST buffer and 25 μl/well primary detection antibody (Cell Signaling Technology, #9312). The assay plates were then incubated at room temperature for 1 hour, washed 3 times with 150 μl/well TBST buffer, and 25 μl/well secondary detection antibody, SULFO-TAG anti-rabbit antibody (MSD, R32AB-1) were added. The assay plates were then incubated at room temperature for 1 hour, washed 3 times with 150 μl/well TB ST buffer, and 150 μl/well MSD reading buffer (MSD, R92TC-2) were added. The plates were then analyzed by an MSD reader. The data was analyzed by GraphPad Prism and the dose dependent TYK2 degradation was fit using the four-parameter inhibitor vs. response nonlinear regression.
The letter codes for TYK2 DC50 include: A (<1 nM); B (i to <10 nM); C (10 to 100 nM); D (>100 nM); and E (not tested). The letter codes for TYK2 Dmax % include: A (>90%); B (90 to >75%); C (75 to 50%); D (<50%); and E (not tested).

[1] = TYK2 degradation in OCI-LY10 cells

T1 sequence (P29597 whole entry): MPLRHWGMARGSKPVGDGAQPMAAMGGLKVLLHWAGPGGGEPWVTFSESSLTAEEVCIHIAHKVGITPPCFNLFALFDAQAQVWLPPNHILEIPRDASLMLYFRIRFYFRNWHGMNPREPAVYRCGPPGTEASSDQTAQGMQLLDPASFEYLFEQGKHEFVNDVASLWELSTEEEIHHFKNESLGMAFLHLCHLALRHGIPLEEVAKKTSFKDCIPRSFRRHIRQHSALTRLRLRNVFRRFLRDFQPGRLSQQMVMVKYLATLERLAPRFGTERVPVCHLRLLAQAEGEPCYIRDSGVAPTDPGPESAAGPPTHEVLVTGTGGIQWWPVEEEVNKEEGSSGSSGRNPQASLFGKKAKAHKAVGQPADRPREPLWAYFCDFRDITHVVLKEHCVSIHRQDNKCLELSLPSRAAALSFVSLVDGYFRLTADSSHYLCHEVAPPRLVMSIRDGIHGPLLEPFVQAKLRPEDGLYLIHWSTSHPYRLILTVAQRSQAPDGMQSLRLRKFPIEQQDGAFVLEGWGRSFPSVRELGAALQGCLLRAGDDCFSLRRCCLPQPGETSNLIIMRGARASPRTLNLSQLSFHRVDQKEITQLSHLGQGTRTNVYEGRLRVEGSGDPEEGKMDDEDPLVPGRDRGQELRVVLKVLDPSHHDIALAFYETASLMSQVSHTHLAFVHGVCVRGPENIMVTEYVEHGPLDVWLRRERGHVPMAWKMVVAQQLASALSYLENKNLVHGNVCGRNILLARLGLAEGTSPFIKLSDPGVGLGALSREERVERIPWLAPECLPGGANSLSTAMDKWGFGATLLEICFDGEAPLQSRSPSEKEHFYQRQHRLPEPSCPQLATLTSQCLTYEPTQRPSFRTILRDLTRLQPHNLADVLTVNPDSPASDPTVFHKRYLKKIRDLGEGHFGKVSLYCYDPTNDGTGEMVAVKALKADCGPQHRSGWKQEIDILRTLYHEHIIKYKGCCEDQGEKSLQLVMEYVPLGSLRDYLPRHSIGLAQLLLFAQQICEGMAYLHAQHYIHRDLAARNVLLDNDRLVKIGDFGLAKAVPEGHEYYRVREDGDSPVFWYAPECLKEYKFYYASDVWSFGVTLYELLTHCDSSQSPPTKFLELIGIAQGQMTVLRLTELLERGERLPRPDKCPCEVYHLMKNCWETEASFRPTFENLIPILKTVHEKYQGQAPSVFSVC

Row | SMILES | TYK2 MSD OCI-LY10 Dmax % [1] | DC50 [1] [nM] | TYK2 MSD OCI-LY10 Dmax % (OCI-LY10 cells) | DC50 (OCI-LY10 cells) [nM]
1 | CNc1cc(N2CCc3c(-c4ncc(CN5CC6(CCN(C(=O)c7cc(C)c(Cl)c(N8CCC(=O)NC8=O)c7)CC6(F)F)C5)cc4F)cccc32)nn2c(C(=O)NC3CC3)cnc12 [I-982] | B (B (90 to >75%)) | < 1 |  | 
2 | CNc1cc(N2CCc3c(CN4CCC(N5CCC6(CCN(C(=O)c7cc(F)c(OC)c(N8CCC(=O)NC8=O)c7)CC6)CC5)C(F)(F)C4)cccc32)nn2c(C(=O)N[C@@H]3C[C@@H]3F)cnc12 (stereo partly shown) [I-769] |  |  | B (B (90 to >75%)) | < 10
3 | CNc1cc(N2CCc3c(N4CCN(C5CCN(C(=O)c6ccc(Cl)c(N7CCC(=O)NC7=O)c6)CC5)CC4)cccc32)nn2c(C(=O)N[C@@H]3C[C@@H]3F)cnc12 [I-94] | D (D (<50%)) | > 100 |  | 
4 | CNc1cc(N2CCc3c(-c4ncc(CN5CC6(CCN(C(=O)c7cc(F)c(Cl)c(N8CCC(=O)NC8=O)c7)CC6(F)F)C5)cc4F)cccc32)nn2c(C(=O)N[C@@H]3C[C@@H]3F)cnc12 [I-994] | A (A (>90%)) | < 1 |  | 
5 | CNc1cc(N2CC3(CCN(c4cccc5c4n(C)c(=O)n5C4CCC(=O)NC4=O)CC3)c3ccccc32)nn2c(C(=O)NC3CC3)cnc12 (stereo not shown) [I-51] | D (D (<50%)) | > 100 |  | 
6 | CNc1cc(N2CCc3c(-c4ccc(OC5CCC6(CC5)CCN(Cc5ccc(Cl)c(N7CCC(=O)NC7=O)c5)CC6)cn4)cccc32)nn2c(C(=O)N[C@@H]3C[C@@H]3F)cnc12 [I-362] | D (D (<50%)) | > 100 |  | 
7 | CNc1cc(N2CCc3c(CN4CCC(N5CC6(CCN(C(=O)c7cc(Cl)c(C)c(N8CCC(=O)NC8=O)c7)CC6)C5)C(F)(F)C4)cccc32)nn2c(C(=O)N[C@@H]3CC[C@H]3OC)cnc12 (stereo partly shown) [I-1068] | A (A (>90%)) | < 1 |  | 
8 | CNc1cc(N2CCc3c(-c4ccc(CN5CCC6(CCN(C(=O)c7cc(C)c(Cl)c(N8CCC(=O)NC8=O)c7)CC6)C(F)(F)C5)cn4)cccc32)nn2c(C(=O)NC3CCC3(F)F)cnc12 (stereo not shown) [I-996] | B (B (90 to >75%)) | < 10 |  | 
9 | CNc1cc(N2CCc3c(CN4CCC(N5CCC(CC#Cc6cccc7c6n(C)c(=O)n7C6CCC(=O)NC6=O)CC5)C(F)(F)C4)cccc32)nn2c(C(=O)NC3CC3F)cnc12 (stereo not shown) [I-488] |  |  | D (D (<50%)) | 10 to 100
10 | CNc1cc(N2CCc3c(-c4ccc(N5CCN(CC6CCN(c7ccc(Cl)c(C8CCC(=O)NC8=O)c7)CC6)CC5)cn4)cccc32)nn2c(C(=O)NC3CC3F)cnc12 (mixture of isomers) [I-442] |  |  | C (C (75 to 50%)) | < 10
11 | CNc1cc(N2CCc3c(CN4CCC(N5CC(N6CCN(c7cccc8c7n(C)c(=O)n8C7CCC(=O)NC7=O)CC6)C5)C(F)(F)C4)cccc32)nn2c(C(=O)N[C@@H]3C[C@@H]3F)cnc12 (stereo partly shown) [I-471] |  |  | B (B (90 to >75%)) | < 1
12 | CNc1cc(N2CCc3c(-c4ccc(CN5CCC6(CCN(C(=O)c7cc(C)c(OC)c(N8CCC(=O)NC8=O)c7)CC6)C(F)(F)C5)cn4)cccc32)nn2c(C(=O)N[C@@H]3C[C@@H]3F)cnc12 [I-757] |  |  | B (B (90 to >75%)) | < 10
13 | CNc1cc(N2CCc3c(CN4CCC(N5CCC6(CCN(C(=O)c7cc(C)c(Cl)c(N8CCC(=O)NC8=O)c7)CC6)CC5)C(F)(F)C4)cc(Cl)cc32)nn2c(C(=O)N[C@@H]3CC[C@H]3OC)cnc12 (stereo partly shown) [I-1116] | B (B (90 to >75%)) | < 10 |  | 
14 | CNc1cc(N2CCc3c(CN4CCC(N5CCC6(CC5)CN(C(=O)c5cc(N7CCC(=O)NC7=O)c(Cl)c(C)n5)C6)C(F)(F)C4)cccc32)nn2c(C(=O)N[C@@H]3CC[C@H]3OC)cnc12 (stereo partly shown) [I-1156] | B (B (90 to >75%)) | < 1 |  | 
15 | CNc1cc(N2CCc3c(-c4ncc(CN5CC6(CCN(C(=O)c7cc(C)c(Cl)c(N8CCC(=O)NC8=O)c7)CC6(F)F)C5)cc4F)cccc32)nn2c(C(=O)NC3CCCC3)cnc12 [I-990] | B (B (90 to >75%)) | < 10 |  | 
16 | CNc1cc(N2CCc3c(-c4ncc(CN5CC6(CCN(C(=O)c7cc(N8CCC(=O)NC8=O)c(F)cn7)CC6(F)F)C5)cc4F)cc(F)cc32)nn2c(C(=O)N[C@@H]3C[C@@H]3F)cnc12 [I-1153] | B (B (90 to >75%)) | < 10 |  | 

Row | SMILES | TYK2 MSD OCI-LY10 Dmax % [1] | DC50 [1] [nM] | TYK2 MSD OCI-LY10 Dmax % (OCI-LY10 cells) | DC50 (OCI-LY10 cells) [nM]
17 | CNc1cc(N2CCc3c(-c4ccc(CN5CCC6(CC5)CCN(c5ccc(C7CCC(=O)NC7=O)c(Cl)c5)CC6)cn4)cccc32)nn2c(C(=O)N[C@@H]3C[C@@H]3F)cnc12 (stereo partly shown) [I-77] | D (D (<50%)) | < 10 |  | 
18 | CNc1cc(N2CCc3c(-c4ncc(CN5CC6(CCN(C(=O)c7cc(N8CCC(=O)NC8=O)c(C)c(Cl)c7F)CC6(F)F)C5)cc4F)cccc32)nn2c(C(=O)N[C@@H]3CC[C@H]3OC)cnc12 [I-1133] | A (A (>90%)) | < 1 |  | 
19 | CNc1cc(N2CCc3c(CN4CCC(N5CCC(CC#Cc6ccc7c(c6)n(C)c(=O)n7C6CCC(=O)NC6=O)CC5)C(F)(F)C4)cccc32)nn2c(C(=O)N[C@@H]3C[C@@H]3F)cnc12 (stereo partly shown) [I-368] | D (D (<50%)) | > 100 |  | 
20 | CNc1cc(N2CCc3c(CCN4CCC5(CC4)CCN(C(=O)c4ccc(Cl)c(N6CCC(=O)NC6=O)c4)CC5)cccc32)nn2c(C(=O)N[C@@H]3C[C@@H]3F)cnc12 [I-895] | D (D (<50%)) | > 100 |  | 
21 | CNc1cc(N2CCc3c(-c4ccc(CN5CCC6(CC5)CCN(c5ccc(Cl)c(NC7CCC(=O)NC7=O)c5)CC6)cn4)cccc32)nn2c(C(=O)NC3CC3)cnc12 (stereo not shown) [I-66] | D (D (<50%)) | > 100 |  | 
22 | CNc1cc(N2CCc3c(-c4ccc(OCCC5CCN(C(=O)c6ccc(Cl)c(N7CCC(=O)NC7=O)c6)CC5)cn4)cccc32)nn2c(C(=O)N[C@@H]3C[C@@H]3F)cnc12 [I-617] |  |  | C (C (75 to 50%)) | < 10
23 | CNc1cc(N2CCc3c(-c4ccc(CN5CC6(CCN(C(=O)c7ccc(Cl)c(N8CCC(=O)NC8=O)c7)CC6(F)F)C5)cn4)cccc32)nn2c(C(=O)N[C@@H]3C[C@@H]3F)cnc12 [I-67] | A (A (>90%)) | < 1 |  | 
24 | CNc1cc(N2CCc3c(-c4ccc(OC5CC6(CCN(C(=O)c7cc(C)c(Cl)c(N8CCC(=O)NC8=O)c7)CC6)C5)cn4)cccc32)nn2c(C(=O)N[C@@H]3CC[C@H]3OC)cnc12 [I-997] | A (A (>90%)) | < 1 |  | 
25 | CNc1cc(N2CCc3c(-c4ccc(CN5CCC(N6CCC(N(C)c7ccc(Cl)c(N8CCC(=O)NC8=O)c7)CC6)C(F)(F)C5)cn4)cccc32)nn2c(C(=O)N[C@@H]3C[C@@H]3F)cnc12 (stereo partly shown) [I-784] |  |  | C (C (75 to 50%)) | 10 to 100
26 | CNc1cc(N2CCc3c(-c4ccc(CN5CCC6(CCN(C(=O)c7ccc(Cl)c(N8CCC(=O)NC8=O)c7)CC6)C(F)(F)C5)cn4)cccc32)nn2c(C(=O)NC3CCC3)cnc12 [I-824] | B (B (90 to >75%)) | < 10 |  | 
27 | CNc1cc(N2CCc3c(CN4CCC(N5CCC6(CCN(C(=O)c7cc(F)c(C)c(N8CCC(=O)NC8=O)c7)CC6)CC5)C(F)(F)C4)cccc32)nn2c(C(=O)N[C@@H]3C[C@@H]3F)cnc12 (stereo partly shown) [I-843] | A (A (>90%)) | < 1 |  | 
28 | CNc1cc(N2CCc3c(-c4ccc(CN5CCN(CC#Cc6cccc(N7CCC(=O)NC7=O)c6C)CC5)cn4)cccc32)nn2c(C(=O)NC3CC3F)cnc12 (stereo not shown) [I-311] | C (C (75 to 50%)) | > 100 |  | 
29 | CNc1cc(N2CCc3c(-c4ncc(CN5CC6(CCN(C(=O)c7cc(N8CCC(=O)NC8=O)c(Cl)c(C)n7)CC6(F)F)C5)cc4F)cccc32)nn2c(C(=O)N[C@@H]3C[C@@H]3F)cnc12 [I-930] | A (A (>90%)) | < 1 |  | 
30 | CNc1cc(N2CCc3c(-c4ccc(OCC5CCN(Cc6ccc(Cl)c(C7CCC(=O)NC7=O)c6)CC5)cn4)cccc32)nn2c(C(=O)N[C@@H]3C[C@@H]3F)cnc12 (stereo partly shown) [I-425] |  |  | D (D (<50%)) | > 100
31 | CNc1cc(N2CCc3c(CN4CCC(CN5CCC6(CCN(C(=O)c7cc(C)c(Cl)c(N8CCC(=O)NC8=O)c7)CC6)C(F)(F)C5)C(F)(F)C4)cccc32)nn2c(C(=O)N[C@@H]3CC[C@H]3OC)cnc12 (stereo partly shown) [I-1122] | A (A (>90%)) | < 1 |  | 
32 | CNc1cc(N2CCc3c(-c4ncc(CN5CC6(CCN(C(=O)c7cc(N8CCC(=O)NC8=O)c(OC)cc7F)CC6(F)F)C5)cc4F)cccc32)nn2c(C(=O)N[C@@H]3CC[C@H]3OC)cnc12 [I-1134] | A (A (>90%)) | < 1 |  | 
